The record followed here is patent US9714266B2, “Estra-1,3,5(10),16-tetraene-3-carboxamides for inhibition of 17β-hydroxysteroid dehydrogenase (AKR1C3)” (priority 2013, dated 2017).

Values joined by “and” are separate entries in the source; they are usually repeats but may differ in a detail not shown here. Identical values can stand only once. A value given as a limit tells only on which side of the number the result lay.

Experiment [1] deals with T1, AKR1C3 (Homo sapiens (Human), UniProt P42330). Nature of the experiment: AKR1C3 inhibition in a cell-based system (transfected HEK293 cells, coumberol fluorescence). The note with it: HEK293 cells transfected with AKR1C3 expression plasmid; read-out: Cellular AKR1C3 inhibition IC50. The method, then:
The inhibition of AKR1C3 by the substances described in this invention was measured in a cell-based assay using […] as the substrate for the AKR1C3 (Halim, M., Yee, D. J., and Sames, D., J. AM. CHEM. SOC. 130, 14123-14128 (2008) and Yee, D. J., Balsanek, V., Bauman, D. R., Penning, T. M., and Sames, D., Proc. Natl. Acad. Sci. USA 103, 13304-13309 (2006)) (cf. Example 48).
The cell system used was HEK293 cells (ATCC, USA) (cell culture medium: DMEM, 1.5 g of glucose, 10% FCS, PSG). The cells were transfected with an AKR1C3 expression plasmid (pCMV6-AC-AKR1C3, GenBank Accession No. NM_003739.4) overnight (X-tremeGENE HP, Roche). The next morning, the cells were sown into black 96-well culture plates with a cell density of 40 000 cells/well (Greiner Bio-One, Frickenhausen, Germany). 7 h later, the cells were incubated with the test substances (dissolved in 100× concentration in DMSO, final concentration between 10^−11M and 10^−5M) and […] (dissolved in cell culture medium, final concentration 5×10^−6M) overnight. The following morning, the fluorescence of coumberol was measured at 535 nm (excitation at 355 nm) with a suitable measuring instrument (Mithras, from Berthold). […] The data were normalized (transfected cells without inhibitor, only DMSO=0% inhibition; transfected cells, 10 μM EM-1404 inhibitor [F. Labrie et al. U.S. Pat. No. 6,541,463, 2003]=100% inhibition) and IC50 values were calculated by a 4-parameter fit.

A further experiment deals with Human CYP17A1 (Homo sapiens (Human), UniProt P05093). As to the kind of experiment: Inhibition of Cyp17A1 (recombinant enzyme, 3H-progesterone conversion, HPLC). The conditions noted are these: for IC50: human CYP17, mean of 3 or 4 independent IC50 values, read-out: IC50 ± SD CYP17. Type of experiment: biochemical. On the procedure:
The inhibition of CYP17A1 by the test compounds was evaluated by means of recombinant enzyme. Human CYP17A1 was expressed in E. coli (Ehmer, P. B. et al.; J. Steroid Biochem. Mol. […] After evaporating the organic phase, the steroids were taken up in acetonitrile. 16α-Hydroxyprogesterone, 17α-hydroxyprogesterone and progesterone were separated with acetonitrile/water (45:55) as mobile phase on a C18 reverse phase chromatography column (Nucleodur C18 Gravity, 3 μm, Macherey-Nagel, Düren) in an HPLC System (Agilent 1100 Series, Agilent Technologies, Waldbronn). Detection and quantification of the steroids were conducted by means of a Radioflow detector (Berthold Technologies, Bad Wildbad). The inhibition was calculated by the following formula: [formula] Each value was calculated from at least three independent experiments.

For experiment [2], the target named is T1, AKR1C3. As to the kind of experiment: AKR1C3 enzyme assay (coumberone reduction, fluorescence). The experiment is classed as biochemical. The conditions noted are these: recombinant human AKR1C3, coumberone 0.3 μM, NADPH 10 μM; read-out: AKR1C3 enzyme inhibition IC50. The method, then: The AKR1C3-inhibitory action of the substances of this invention was measured in the AKR1C3 assay described in the paragraphs which follow. Essentially, the enzyme activity is measured by quantifying the coumberol formed from coumberone ([…]., and […]. AM. CHEM. SOC. 130, 14123-14128 (2008) […]., Bauman, D. R., Penning, T. M., and […]., Proc. Natl. Acad. Sci. USA 103, 13304-13309 (2006)). In this assay, the increase in the highly fluorescent coumberol can be determined by NADPH (nicotinamide adenine dinucleotide phosphate)-dependent reduction of the nonfluorescent coumberone by AKR1C3. […] NM_003739). This was expressed as the GST (glutathione S-transferase) fusion protein in E. coli and purified by means of glutathione-Sepharose affinity chromatography. The GST was removed by thrombin digestion with subsequent size exclusion chromatography (Dufort, I., Rheault, P., Huang, X F., Soucy, P., and Luu-The, V., Endocrinology 140, 568-574 (1999)). […] The concentration of the AKR1C3 was matched to the respective activity of the enzyme preparation and set such that the assay worked within the linear range. Typical concentrations were in the region of 1 nM. The reaction was stopped by adding 5 μl of a stop solution consisting of the inhibitor EM-1404 [F. Labrie et al. U.S. Pat. […] Subsequently, the fluorescence of coumberol was measured at 520 nm (excitation at 380 nm) with a suitable measuring instrument (Pherastar from BMG Labtechnologies).

The target of another experiment is recombinant human AKR1C4 (Homo sapiens (Human), UniProt P17516). Nature of the experiment: AKR1C4 inhibition (NADPH consumption, phenanthrenequinone). Type of experiment: biochemical. The method, then: (§1) The AKR1C1/AKR1C2/AKR1C4-inhibitory action of the inventive substances, for determination of the selectivity of this invention, was measured in the assay described in the paragraphs which follow. Essentially, the enzyme activity is measured by the quantification of NADPH (nicotinamide adenine dinucleotide phosphate) consumption in the conversion of phenanthrenequinone (PQ) by the AKR1C enzymes. […] NM_001353.5, NM_001354, NM_001818). This was expressed as the GST (glutathione S-transferase) fusion protein in E. coli and purified by means of glutathione-Sepharose affinity chromatography. The GST was removed by thrombin digestion with subsequent size exclusion chromatography (Dufort, I., Rheault, P., Huang, X F., Soucy, P., and Luu-The, V., Endocrinology 140, 568-574 (1999)). […] The mixture was incubated at 37° C. for 3 h, and the fluorescence was determined at the end of the reaction. […] Typically, the test substances were tested on the same microtitre plate in […] in the range from 10 μM to 1 pM (10 μM, 1 μM, 100 nM, 10 nM, 1 nM, 100 pM, 10 pM, 1 pM). As described, the pharmacological substances claimed were tested for their inhibitory effect on AKR1C enzymes 1, 2 and 4 (see Table 4).

A further experiment concerns the target recombinant human AKR1C2 (Homo sapiens (Human), UniProt P52895). As to the kind of experiment: AKR1C2 inhibition (NADPH consumption, phenanthrenequinone). Type of experiment: biochemical. On the procedure:
as §1

Another experiment concerns the target recombinant human AKR1C1 (Homo sapiens (Human), UniProt Q04828). As to the kind of experiment: AKR1C1 inhibition (NADPH consumption, phenanthrenequinone). Type of experiment: biochemical. On the procedure: as §1

Sequence of recombinant human AKR1C4 (P17516 whole entry, the tested form may be a part): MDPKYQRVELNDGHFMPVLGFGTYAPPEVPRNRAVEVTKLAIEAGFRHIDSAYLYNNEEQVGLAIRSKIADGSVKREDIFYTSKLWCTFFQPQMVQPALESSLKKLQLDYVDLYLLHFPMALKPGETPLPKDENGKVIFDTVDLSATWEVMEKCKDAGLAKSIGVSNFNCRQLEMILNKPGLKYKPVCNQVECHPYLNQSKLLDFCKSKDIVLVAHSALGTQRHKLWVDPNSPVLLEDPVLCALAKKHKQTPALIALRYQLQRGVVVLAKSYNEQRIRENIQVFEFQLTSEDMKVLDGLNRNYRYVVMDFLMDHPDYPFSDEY
T1 sequence (P42330 whole entry): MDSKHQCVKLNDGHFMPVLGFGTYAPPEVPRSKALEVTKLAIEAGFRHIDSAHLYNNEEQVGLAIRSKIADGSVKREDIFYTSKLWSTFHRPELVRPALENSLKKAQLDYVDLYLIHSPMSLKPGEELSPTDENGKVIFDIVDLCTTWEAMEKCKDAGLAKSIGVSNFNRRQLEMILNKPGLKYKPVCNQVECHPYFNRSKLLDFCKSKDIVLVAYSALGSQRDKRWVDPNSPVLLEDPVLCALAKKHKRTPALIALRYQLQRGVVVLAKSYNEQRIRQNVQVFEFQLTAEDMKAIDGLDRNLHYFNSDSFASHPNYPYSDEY
Sequence of Human CYP17A1 (P05093 whole entry): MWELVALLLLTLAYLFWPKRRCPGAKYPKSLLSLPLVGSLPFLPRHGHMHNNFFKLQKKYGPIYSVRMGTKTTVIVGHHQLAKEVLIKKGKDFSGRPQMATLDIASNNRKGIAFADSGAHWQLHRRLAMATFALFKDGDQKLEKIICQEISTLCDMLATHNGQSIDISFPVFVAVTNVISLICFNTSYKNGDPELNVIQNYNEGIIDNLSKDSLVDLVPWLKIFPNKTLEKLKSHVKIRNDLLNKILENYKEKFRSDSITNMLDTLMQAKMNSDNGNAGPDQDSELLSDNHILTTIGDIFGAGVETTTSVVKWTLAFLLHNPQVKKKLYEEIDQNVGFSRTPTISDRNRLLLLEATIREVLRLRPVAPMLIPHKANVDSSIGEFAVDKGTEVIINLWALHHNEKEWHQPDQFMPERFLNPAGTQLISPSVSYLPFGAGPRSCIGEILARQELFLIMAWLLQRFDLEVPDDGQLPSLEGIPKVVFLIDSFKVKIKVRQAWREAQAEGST
Sequence of recombinant human AKR1C1 (Q04828 whole entry): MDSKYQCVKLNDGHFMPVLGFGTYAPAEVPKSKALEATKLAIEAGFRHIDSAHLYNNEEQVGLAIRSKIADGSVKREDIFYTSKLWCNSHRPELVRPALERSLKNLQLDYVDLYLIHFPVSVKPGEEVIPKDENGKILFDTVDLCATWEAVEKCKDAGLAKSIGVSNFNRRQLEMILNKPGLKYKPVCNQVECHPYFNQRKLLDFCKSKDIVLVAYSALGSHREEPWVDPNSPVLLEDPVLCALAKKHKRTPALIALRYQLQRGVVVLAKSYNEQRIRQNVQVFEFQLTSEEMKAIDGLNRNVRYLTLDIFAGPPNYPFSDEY
Sequence of recombinant human AKR1C2 (P52895 whole entry): as the sequence (Q04828 whole entry) above, with T38V, R47H, L54V, C87S, V151M, R170H, Q172L counted along it

As a reminder, the IC50 is the midpoint of a concentration-inhibition curve. Regarding `C[C@]12CC[C@@H]3c4ccc(C(=O)NCC(O)C(F)(F)F)cc4CC[C@H]3[C@@H]1CC=C2c1cncc(F)c1` (mixture of isomers) [Example 20, 17-(5-fluoropyridin-3-yl)-N—[(RS)-3,3,3-trifluoro-2-hydroxypropyl]oestra-1,3,5(10),16-tetraene-3-carboxamide], the IC50 on AKR1C3 [1] is 0.032 µM and 0.042 µM; at Human CYP17A1, above 20 µM; on AKR1C3 [2], 0.012 µM and 0.008 µM and 0.02 µM and 0.016 µM.

On to `C[C@]12CC[C@H](O)CC1=CC[C@@H]1[C@@H]2CC[C@]2(C)C(c3cccnc3)=CC[C@@H]12` [Abiraterone, reference compound], for which the “Inhibition of Cyp17A1 (in words)” value at Human CYP17A1 (up to a substance concentration of 20 μM where stated) is given as “active”.

With `C[C@]12CC[C@@H]3c4ccc(C(N)=O)cc4CC[C@H]3[C@@H]1CC=C2c1cccnc1` [Example 1, 17-(pyridin-3-yl)oestra-1,3,5(10),16-tetraene-3-carboxamide], at recombinant human AKR1C4, the “Inhibition of AKR1C4 (in words)” value is on record as “no inhibition”. Moreover, the “AKR1C4 enzyme inhibition IC50” value at recombinant human AKR1C4 (tested up to 10 μM) was “no effect”. Further, the IC50 is 0.027 µM and 0.028 µM and 0.066 µM and 0.013 µM on AKR1C3 [1]; 0.005 µM and 0.006 µM on AKR1C3 [2]. Further, the “Inhibition of AKR1C2 (in words)” value on recombinant human AKR1C2 is “no inhibition”. Also, the “AKR1C2 enzyme inhibition IC50” value at recombinant human AKR1C2 (tested up to 10 μM) is recorded as “no effect”. At recombinant human AKR1C1, the “Inhibition of AKR1C1 (in words)” value was “no inhibition”. At recombinant human AKR1C1 (tested up to 10 μM), the “AKR1C1 enzyme inhibition IC50” value is given as “no effect”.

In the case of `C[C@]12CC[C@@H]3c4ccc(C(N)=O)cc4CC[C@H]3[C@@H]1CC=C2c1cncc(F)c1` [Example 4, 17-(5-fluoropyridin-3-yl)oestra-1,3,5(10),16-tetraene-3-carboxamide], the IC50 at Human CYP17A1 was above 20 µM; at AKR1C3 [2], 0.004 µM.

Turning to `O=C1OC(c2ccc(O)cc2)(c2ccc(O)cc2)c2ccccc21` [phenolphthalein], the “Inhibition of AKR1C4 (in words)” value at recombinant human AKR1C4 is “shows inhibition”. The IC50 is 0.021 µM and 0.017 µM at recombinant human AKR1C4 (tested up to 10 μM, read-out: AKR1C4 enzyme inhibition IC50); 0.554 µM and 0.438 µM on recombinant human AKR1C2 (tested up to 10 μM, read-out: AKR1C2 enzyme inhibition IC50); 0.046 µM and 0.06 µM on recombinant human AKR1C1 (tested up to 10 μM, read-out: AKR1C1 enzyme inhibition IC50). Further, at recombinant human AKR1C2, the “Inhibition of AKR1C2 (in words)” value is listed as “shows inhibition”. In addition, the “Inhibition of AKR1C1 (in words)” value at recombinant human AKR1C1 is “shows inhibition”.
